US20230009626A1 (ICHNOS SCIENCES S.A., priority 2018, published 2023)
Counter-ions that a name gives are not always drawn.

Target: HPK1 (MAP4K1) (Homo sapiens, UniProt Q92918)
Test: FRET Assay for HPK1 (MAP4K1): one step binding assay, displacement of labeled tracer
Details: for inhibition at 1 µM: 1 μM compound; for inhibition at 1 µM / inhibition at 10 µM: FRET ratio 665/620, percent of control; for IC50: dose response curve, nonlinear regression; for inhibition at 10 µM: 10 μM compound
Description: FRET Assay for HPK1 (MAP4K1):
This is a one step binding assay based on the binding and displacement of the labeled tracer, where compound addition is followed by addition of the anti-GST tagged europium (Eu) as the donor and Alexa Fluor-labeled tracer as the acceptor. Simultaneous binding of both the tracer and GST-antibody to the kinase domain of HPK1 results in a high degree of FRET (fluorescence resonance energy transfer) from the anti-GST tagged europium (Eu) fluorophore to the Alexa Fluor® 647 fluorophore on the kinase tracer and this signal is reduced in presence of the inhibitor that can be measured.
Test compounds or reference compounds such as Sunitinib (Sigma) were dissolved in dimethylsulfoxide (DMSO) to prepare 10.0 mM stock solutions and diluted to the desired concentration. The final concentration of DMSO in the reaction was 3% (v/v). The assay mixture was prepared by mixing 4 nM of the Eu-Anti-GST Antibody and 10 nM MAP4K-1 enzyme in the Kinase buffer containing 50mM HEPES (pH 7.5), 10 mM MgCl2, 1 mM EGTA, 0.01% Brij-35 with or without the desired concentration of the compound. The reaction was incubated on ice for 15 mins. The pre-incubation step was followed by addition of the 20 nM Kinase Tracer 222 into the reaction mixture. After shaking for 5 min the reaction was further incubated for 1 hour at room temperature and this was kept at 4° C. and read on ARTEMIS reader as per the kit instructions (Thermo). […] The activity was calculated as percent of control reaction. IC50 values were calculated from dose response curve by nonlinear regression analysis using GraphPad Prism software.
Percentage inhibition at concentrations of 1.0 μM and 10.0 μM are given in the table along with IC50 (nM) details for selected examples.

Chain of HPK1 (MAP4K1) (Q92918 whole entry): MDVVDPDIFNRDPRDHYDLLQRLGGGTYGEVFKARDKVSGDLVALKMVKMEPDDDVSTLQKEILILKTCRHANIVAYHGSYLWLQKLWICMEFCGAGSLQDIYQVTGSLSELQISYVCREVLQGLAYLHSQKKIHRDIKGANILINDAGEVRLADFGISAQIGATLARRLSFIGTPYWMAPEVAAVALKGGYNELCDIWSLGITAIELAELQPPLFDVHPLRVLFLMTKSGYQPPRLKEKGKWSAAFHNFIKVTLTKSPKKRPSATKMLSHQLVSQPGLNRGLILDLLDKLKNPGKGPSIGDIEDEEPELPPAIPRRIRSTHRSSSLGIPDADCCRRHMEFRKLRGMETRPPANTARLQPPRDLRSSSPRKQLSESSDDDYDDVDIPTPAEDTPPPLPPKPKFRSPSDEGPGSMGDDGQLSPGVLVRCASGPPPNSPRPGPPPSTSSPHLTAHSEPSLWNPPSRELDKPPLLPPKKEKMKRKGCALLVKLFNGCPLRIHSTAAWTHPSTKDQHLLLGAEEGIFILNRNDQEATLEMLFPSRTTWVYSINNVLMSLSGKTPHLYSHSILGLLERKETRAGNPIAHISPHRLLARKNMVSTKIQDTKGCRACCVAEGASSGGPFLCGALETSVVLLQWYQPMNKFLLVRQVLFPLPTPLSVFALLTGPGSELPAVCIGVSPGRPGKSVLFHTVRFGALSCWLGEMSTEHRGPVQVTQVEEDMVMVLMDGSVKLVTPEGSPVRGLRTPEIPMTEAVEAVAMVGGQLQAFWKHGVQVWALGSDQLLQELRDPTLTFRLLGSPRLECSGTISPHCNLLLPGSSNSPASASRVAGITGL

inhibition at 1 µM | IC50 | inhibition at 10 µM | SMILES
75.9% | < 50 nM |  | C/C(Nc1ccn(C(C)C#N)n1)=C1/C(=O)Nc2cnc(-c3cnccc3C)cc21 (stereo in doubt) [Example 116]
69.8% | 100 to 500 nM | 84% | CN/C(=C1\C(=O)Nc2ccc(-c3c(F)cccc3OC)cc21)c1ccccc1 [Example 1, 5-(2-fluoro-6-methoxyphenyl)-3-((methylamino)(phenyl)methylene)indolin-2-one]
88.6% | < 50 nM | 82.5% | COc1cccc(F)c1-c1ccc2c(c1)/C(=C(\C)Nc1ccc(N3CCN(C)CC3)cc1)C(=O)N2 [Example 2, (Z)-5-(2-Fluoro-6-methoxyphenyl)-3-(1-((4-(4-methylpiperazin-1-yl)phenyl)amino)ethylidene)indolin-2-one]
62.5% | 100 to 500 nM |  | COc1cccc(F)c1-c1ccc2c(c1)/C(=C(\C)Nc1ccccc1)C(=O)N2 [Example 3, (Z)-5-(2-Fluoro-6-methoxyphenyl)-3-(1-(phenylamino)ethylidene)indolin-2-one]
90.1% | < 50 nM | 91% | COc1cccc(F)c1-c1ccc2c(c1)/C(=C(\C)Nc1ccc(N3CCN(C4COC4)CC3)nc1)C(=O)N2 [Example 4, (Z)-5-(2-Fluoro-6-methoxyphenyl)-3-(1-((6-(4-(oxetan-3-yl)piperazin-1-yl)pyridin-3-yl)amino)ethylidene)indolin-2-one]
76.1% | 100 to 500 nM | 85.5% | C/C(Nc1ccc(N2CCN(C3COC3)CC2)nc1)=C1/C(=O)Nc2ccc(F)cc21 [Example 5, (Z)-5-Fluoro-3-(1-((6-(4-(oxetan-3-yl)piperazin-1-yl)pyridin-3-yl)amino)ethylidene)indolin-2-one]
85.5% | < 50 nM | 87.3% | C/C(Nc1ccc(N2CCN(C)CC2)cc1)=C1/C(=O)Nc2ccc(F)cc21 [Example 6, (Z)-5-Fluoro-3-(1-((4-(4-methylpiperazin-1-yl)phenyl)amino)ethylidene)indolin-2-one]
82.4% | < 50 nM | 87.1% | COc1cccc(F)c1-c1ccc2c(c1)/C(=C(\C)Nc1ccc(N(C)C(=O)CN3CCN(C)CC3)cc1)C(=O)N2 [Example 7, (Z)-N-(4-((1-(5-(2-Fluoro-6-methoxyphenyl)-2-oxoindolin-3-ylidene)ethyl)amino)phenyl)-N-methyl-2-(4-methylpiperazin-1-yl)acetamide]
84.8% | < 50 nM | 83.8% | COc1cccc(F)c1-c1ccc2c(c1)/C(=C(\C)Nc1ccc(N3CCNCC3)cc1)C(=O)N2 [Example 8, (Z)-5-(2-Fluoro-6-methoxyphenyl)-3-(1-((4-(piperazin-1-yl)phenyl)amino)ethylidene)indolin-2-one]
84.9% | < 50 nM | 84.4% | CC/C(Nc1ccc(N2CCN(C)CC2)cc1)=C1/C(=O)Nc2ccc(-c3c(F)cccc3OC)cc21 [Example 9, (Z)-5-(2-Fluoro-6-methoxyphenyl)-3-(1-((4-(4-methylpiperazin-1-yl)phenyl)amino)propylidene)indolin-2-one]
82.6% | < 50 nM | 88.2% | COc1cccc(F)c1-c1ccc2c(c1)/C(=C(\C)Nc1cnn(C)c1)C(=O)N2 [Example 10, (Z)-5-(2-Fluoro-6-methoxyphenyl)-3-(1-((1-methyl-1H-pyrazol-4-yl)amino)ethylidene)indolin-2-one]
73.2% | 100 to 500 nM | 84.4% | COc1cccc(F)c1-c1ccc2c(c1)/C(=C(\C)Nc1ccc(N3CCN(C)CC3)cc1C)C(=O)N2 [Example 11, (Z)-5-(2-Fluoro-6-methoxyphenyl)-3-(1-((2-methyl-4-(4-methylpiperazin-1-yl)phenyl)amino)ethylidene)indolin-2-one]
48% | > 500 nM | 55.8% | COc1cc2c(cc1N/C(C)=C1\C(=O)Nc3ccc(-c4c(F)cccc4OC)cc31)CNCC2 [Example 12, (Z)-5-(2-Fluoro-6-methoxyphenyl)-3-(1-((6-methoxy-1,2,3,4-tetrahydroisoquinolin-7-yl)amino)ethylidene)indolin-2-one. PTSA salt]
73.3% | 50 to 100 nM |  | COc1cccc(F)c1-c1ccc2c(c1)/C(=C(\C)Nc1ccc(N3CCOCC3)cc1)C(=O)N2 [Example 13, (Z)-5-(2-Fluoro-6-methoxyphenyl)-3-(1-((4-morpholinophenyl)amino)ethylidene)indolin-2-one]
86.3% | < 50 nM | 88.3% | COc1cccc(F)c1-c1cc2c(cn1)NC(=O)/C2=C(/C)Nc1ccc(N2CCN(C)CC2)cc1 [Example 14, (Z)-5-(2-fluoro-6-methoxyphenyl)-3-(1-((4-(4-methylpiperazin-1-yl)phenyl)amino)ethylidene)-1H-pyrrolo[2,3-c]pyridin-2(3H)-one]
85.2% | < 50 nM | 87% | COc1cccc(F)c1-c1ccc2c(c1)/C(=C(/Nc1cnn(C)c1)c1ccccc1)C(=O)N2 [Example 15, (Z)-5-(2-Fluoro-6-methoxyphenyl)-3-(((1-methyl-1H-pyrazol-4-yl)amino)(phenyl)methylene)indolin-2-one]
85.3% | < 50 nM | 88.9% | COc1cccc(F)c1-c1cc2c(cn1)NC(=O)/C2=C(/C)Nc1cnn(C)c1 [Example 16, (Z)-5-(2-Fluoro-6-methoxyphenyl)-3-(1-((1-methyl-1H-pyrazol-4-yl)amino)ethylidene)-1H-pyrrolo[2,3-c]pyridin-2(3H)-one]
85.7% | < 50 nM | 83.3% | CC/C(Nc1cnn(C)c1)=C1/C(=O)Nc2ccc(-c3c(F)cccc3OC)cc21 [Example 17, (Z)-5-(2-Fluoro-6-methoxyphenyl)-3-(1-((1-methyl-1H-pyrazol-4-yl)amino)propylidene)indolin-2-one]
89.8% | < 50 nM | 85.4% | COc1cccc(F)c1-c1ccc2c(c1)/C(=C(\C)Nc1ccn(C)n1)C(=O)N2 [Example 18, (Z)-5-(2-Fluoro-6-methoxyphenyl)-3-(1-((1-methyl-1H-pyrazol-3-yl)amino)ethylidene)indolin-2-one]
85.2% | < 50 nM | 80.1% | COc1cccc(F)c1-c1cc2c(cc1Cl)NC(=O)/C2=C(/C)Nc1cnn(C)c1 [Example 20]
83.1% | < 50 nM | 80% | COc1cccc(F)c1-c1cc2c(cc1C)NC(=O)/C2=C(/C)Nc1cnn(C)c1 [Example 21, (Z)-5-(2-Fluoro-6-methoxyphenyl)-6-methyl-3-(1-((1-methyl-1H-pyrazol-4-yl)amino)ethylidene)indolin-2-one]
86.6% | < 50 nM | 90.5% | CCOc1cccc(F)c1-c1cc2c(cn1)NC(=O)/C2=C(/C)Nc1cnn(CC)c1 [Example 22, (Z)-5-(2-Ethoxy-6-fluorophenyl)-3-(1-((1-ethyl-1H-pyrazol-4-yl)amino)ethylidene)-1H-pyrrolo[2,3-c]pyridin-2(3H)-one]
84.6% | < 50 nM | 87% | C/C(Nc1cnn(C)c1)=C1/C(=O)Nc2cnc(-c3cnccc3C)cc21 [Example 23, (Z)-3-(1-((1-methyl-1H-pyrazol-4-yl)amino)ethylidene)-5-(4-methylpyridin-3-yl)-1H-pyrrolo[2,3-c]pyridin-2(3H)-one]
70.9% | 100 to 500 nM | 79.7% | C/C(Nc1cnn(C)c1)=C1/C(=O)Nc2cnc(-c3ccc(F)cc3F)cc21 [Example 24, (Z)-5-(2,4-Difluorophenyl)-3-(1-((1-methyl-1H-pyrazol-4-yl)amino)ethylidene)-1H-pyrrolo[2,3-c]pyridin-2(3H)-one]
87.1% | < 50 nM | 85.3% | CCOc1cccc(F)c1-c1cc2c(cn1)NC(=O)/C2=C(/C)Nc1cnn(C)c1 [Example 25, (Z)-5-(2-Ethoxy-6-fluorophenyl)-3-(1-((1-methyl-1H-pyrazol-4-yl)amino)ethylidene)-1H-pyrrolo[2,3-c]pyridin-2(3H)-one]
88.8% | < 50 nM | 93.5% | COc1cccc(F)c1-c1cc2c(cc1F)NC(=O)/C2=C(/C)Nc1cnn(C)c1 [Example 26]
88.4% | < 50 nM | 96.3% | COc1cccc(F)c1-c1cc2c(cn1)NC(=O)/C2=C(/C)Nc1cnn(C2COC2)c1 [Example 27, (Z)-5-(2-Fluoro-6-methoxyphenyl)-3-(1-((1-(oxetan-3-yl)-1H-pyrazol-4-yl)amino)ethylidene)-1H-pyrrolo[2,3-c]pyridin-2(3H)-one]
